Structures can show the parent of a compound that is named as a salt.
How the values were obtained:
[1] = tested on: 9,11-azo PGH2 induced aggregation of rabbit platelet; assay: Effect on 9,11-azo PGH2 induced aggregation of rabbit platelet in vitro; type: cell-based; settings: Oryctolagus cuniculus; rabbit platelet rich plasma, in vitro, 9,11-azo PGH2 (final 1.0 μM), 37° C.; read-out: IC50 (Inhibition concentration of platelet aggregation by 50%)
Description: (§1) In the following tests, the used 9, 11-azo PGH2 and 9,11-methanoepoxy PGH2 (U46619) are characterized pharmacologically as TXA2 mimetic agents and widely used for evaluating TXA2 antagonism of test compounds (for example, vide The Journal of Pharmacology and Experimental Therapeutics Vol. 234, pp 435-441).
Test 1 (Effect on 9,11-azo PGH2 induced aggregation of rabbit platelet in vitro) (a) Test method
In the in vitro experiments, the blood was collected from the carotid artery of rabbits into plastic vessels containing 0.1 volume of 3.8% aqueous sodium citrate. Platelet rich plasma (PRP) was prepared by centrifugation at 150 g for 15 minutes. Platelet aggregation was investigated using the turbidometric method with an aggregometer (NKK HEMATRACER 1). To the 225 μl of PRP, 25 μl of test compound solution was added, and then stirred at 1000 rpm for 2 minutes at 37° C. To the solution, 5 μl of 9,11-azo PGH2 (final 1.0 μM) was added as an aggregating inducer. IC50 (Inhibition concentration of platelet aggregation by 50%) were graphically determined.

[2] = tested on: 9,11-methanoepoxy PGH2 induced platelet aggregation; assay: Effect on 9,11-methanoepoxy PGH2 (U46619) induced platelet aggregation ex vivo; type: in vivo, male Hartley strain guinea-pigs; settings: Cavia porcellus, guinea-pig, oral administration 0.032 mg/kg, 1 hour before blood collection, U46619 0.5 μM
Description: as §1
Test 2. (Effect on 9,11-methanoepoxy PGH2 induced platelet aggregation ex vivo)
In the ex vivo experiments, male Hartley strain guinea-pigs weighing about 300 g were used after overnight fasting. Animals received an oral administration of test compound (0.032 mg/kg) or vehicle 1 hour before the blood collection from abdominal artery PRP was prepared as described above, and platelet aggregation was induced by adding 5 μl of 9,11-methanoepoxy PGH2 (U46619, 0.5 μM) to 250 μl of PRP.

Question: What does the source list for `O=C(O)CCCC=C[C@@H]1C[C@@H](NS(=O)(=O)c2ccc(Cl)cc2)CN1S(=O)(=O)c1ccc(Cl)cc1` [Test compound (1), Sodium salt of (2S,4R)-2-[(E and Z)-5-carboxy-1-pentenyl]-1-(4-chlorophenylsulfonyl)-4-(4-chlorophenylsulfonylamino)pyrrolidine]?
Answer: IC50 [1]: 85 nM; inhibition at 0.032 mg/kg [2]: 94.2%

Question: For `O=C(O)CCC/C=C\[C@@H]1C[C@@H](NS(=O)(=O)c2ccc(Cl)cc2)CN1S(=O)(=O)c1ccc(Cl)cc1` [Test compound (2), (2S,4R)-2-[(Z)-5-Carboxy-1-pentenyl]-1-(4-chlorophenylsulfonyl)-4-(4-chlorophenylsulfonylamino)pyrrolidine], which IC50 [1] is on record?
Answer: The IC50 was 55 nM.

Question: What about the inhibition at 0.032 mg/kg [2] of the same compound?
Answer: Its inhibition at 0.032 mg/kg is 100%.

— patent publication US4916152A, “Pyrrolidine derivatives as antiasthmatics” (Fujisawa Pharmaceutical Co., Ltd., priority 1987, dated 1990)
